Assay results from the supplement of paper PMC11061612.

How the values were obtained:
Experiment in all cases: combination Emax (second highest fraction inhibited in the dose matrix, 72 h); higher = more inhibition; extreme values may be limits of the assay
769-P (Kidney Carcinoma) = tested on: 769-P (Kidney Carcinoma)
How it was run: (§1)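 Cell lines in DMEM/F12 or RPMI with 10% FBS were plated in 1536-well plates, held 24 hours at 37°C, 5% CO2, then given two-drug dose matrices for 72 hours (DMSO typically 0.2%). Viability was read by CellTiter-Glo 2.0 luminescence and scaled as inhibition from 0 (vehicle wells) to 1 (blank wells). Combination Emax is the second-highest inhibition in the matrix; Bliss excess is observed combination effect minus expected EA + EB − EA·EB, EA and EB being single-agent effects.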

[1] = tested on: A2780 (Ovarian Carcinoma)
How it was run: as §1

[2] = tested on: CGTH-W-1 (Thyroid Gland Carcinoma)
How it was run: as §1

EB2 (Burkitt's Lymphoma) = tested on: EB2 (Burkitt's Lymphoma)
How it was run: as §1

EW-7 (Ewing's Sarcoma) = tested on: EW-7 (Ewing's Sarcoma)
How it was run: as §1

[3] = tested on: HCC1395 (Breast Carcinoma)
How it was run: as §1

IM-9 (Non-Cancerous) = tested on: IM-9 (Non-Cancerous)
How it was run: as §1

[4] = tested on: JHH-2 (Hepatocellular Carcinoma)
How it was run: as §1

[5] = tested on: KYSE-220 (Esophageal Squamous Cell Carcinoma)
How it was run: as §1

[6] = tested on: LU-165 (Small Cell Lung Carcinoma)
How it was run: as §1

[7] = tested on: MDA-MB-436 (Breast Carcinoma)
How it was run: as §1

[8] = tested on: MHH-ES-1 (Ewing's Sarcoma)
How it was run: as §1

[9] = tested on: NCI-H1651 (Lung Adenocarcinoma)
How it was run: as §1

[10] = tested on: NCI-H1703 (Squamous Cell Lung Carcinoma)
How it was run: as §1

[11] = tested on: NCI-H2087 (Lung Adenocarcinoma)
How it was run: as §1

[12] = tested on: NCI-H441 (Lung Adenocarcinoma)
How it was run: as §1

PEO1 (Ovarian Carcinoma) = tested on: PEO1 (Ovarian Carcinoma)
How it was run: as §1

[13] = tested on: SK-HEP-1 (Hepatocellular Carcinoma)
How it was run: as §1

[14] = tested on: SW620 (Colorectal Carcinoma)
How it was run: as §1

WM1552C (Melanoma) = tested on: WM1552C (Melanoma)
How it was run: as §1

| SMILES | combination Emax (769-P (Kidney Carcinoma)) | combination Emax [1] | combination Emax [2] | combination Emax (EB2 (Burkitt's Lymphoma)) | combination Emax (EW-7 (Ewing's Sarcoma)) | combination Emax [3] | combination Emax (IM-9 (Non-Cancerous)) | combination Emax [4] | combination Emax [5] | combination Emax [6] | combination Emax [7] | combination Emax [8] | combination Emax [9] | combination Emax [10] | combination Emax [11] | combination Emax [12] | combination Emax (PEO1 (Ovarian Carcinoma)) | combination Emax [13] | combination Emax [14] | combination Emax (WM1552C (Melanoma)) |
| --- | --- | --- | --- | --- | --- | --- | --- | --- | --- | --- | --- | --- | --- | --- | --- | --- | --- | --- | --- | --- |
| Cc1cc2ncnn2cc1Nc1ncc2c(n1)n(C1CCOCC1)c(=O)n2C [AZD7648] + CCN(CCO)CCCOc1ccc2c(Nc3cc(CC(=O)Nc4cccc(F)c4)[nH]n3)ncnc2c1 [AZD2811] (first compound max 10 µM, 7x7, partner max 1 µM) | 0.416 | 0.686 | 0.338 | 0.473 | 0.596 | 0.363 | 0.943 | 0.446 | 0.331 | 0.288 | 0.321 | 0.54 | 0.264 | 0.688 | 0.215 | 0.309 | 0.262 | 0.395 | 0.248 | 0.43 |
| N#Cc1cnc(Nc2cc(NC[C@H]3CNCCO3)c(C(F)(F)F)cn2)cn1 [SRA737] + O=c1[nH]cc(F)c(=O)[nH]1 [5-Fluorouracil] (first compound max 10 µM, 7x7, partner max 20 µM) | 0.756 | 0.72 | 0.646 | 0.88 | 0.814 | 0.653 | 1 | 0.623 | 0.497 | 0.413 | 0.409 | 0.697 | 0.479 | 0.885 | 0.309 | 0.381 | 0.458 | 0.416 | 0.422 | 0.728 |
| Cc1nc(Nc2ncc(C(=O)Nc3c(C)cccc3Cl)s2)cc(N2CCN(CCO)CC2)n1 [Dasatinib] + CC(=O)Nc1cccc(-n2c(=O)n(C3CC3)c(=O)c3c(Nc4ccc(I)cc4F)n(C)c(=O)c(C)c32)c1 [Trametinib] (first compound max 2 µM, 7x7, partner max 1 µM) | 0.814 | 0.841 | 0.982 | 0.531 | 0.213 | 0.527 | 0.876 | 0.973 | 0.555 | 0.144 | 0.342 | 0.135 | 0.136 | 0.782 | 0.573 | 0.442 | 0.492 | 0.325 | 0.694 | 0.764 |
| C[C@@H](c1ccc2nccn2c1)n1nnc2ncc(-c3cnn(C)c3)nc21 [Savolitinib] + Cc1c2c(nn1C)CSCc1cc(n(C)n1)CSc1cc(c3ccccc3c1)OCCCc1c(C(=O)O)n(C)c3c-2c(Cl)ccc13 [AZD5991] (first compound max 1 µM, 7x7, partner max 1 µM) | 0.158 | 0.499 | 0.173 | 0.208 | 0.133 | 0.478 | 0.573 | 0.142 | 0.164 | 0.213 | 0.18 | 0.38 | 0.183 | 0.852 | 0.204 | 0.221 | 0.218 | 0.237 | 0.167 | 0.554 |
| CN(CCO)CC[C@H](CSc1ccccc1)Nc1ccc(S(=O)(=O)NC(=O)c2ccc(N3CCC([C@@H](O)c4ccccc4-c4ccc(Cl)cc4)CC3)cc2)cc1S(=O)(=O)C(F)(F)F [AZD4320] + Cc1cc2ncnn2cc1Nc1ncc2c(n1)n(C1CCOCC1)c(=O)n2C [AZD7648] (first compound max 1 µM, 7x7, partner max 10 µM) | 0.574 | 0.51 | 0.163 | 0.431 | 0.966 | 0.263 | 0.696 | 0.448 | 0.11 | 0.516 | 0.177 | 0.497 | 0.16 | 0.322 | 0.286 | 0.198 | 0.386 | 0.162 | 0.233 | 0.143 |
| Cc1cc2ncnn2cc1Nc1ncc2c(n1)n(C1CCOCC1)c(=O)n2C [AZD7648] + COc1cc([C@@H]2c3cc4c(cc3[C@@H](O[C@@H]3O[C@@H]5CO[C@@H](C)O[C@H]5[C@H](O)[C@H]3O)[C@H]3COC(=O)[C@H]23)OCO4)cc(OC)c1O [Etoposide] (first compound max 10 µM, 7x7, partner max 10 µM) | 0.75 | 0.889 | 0.603 | 0.953 | 0.882 | 0.432 | 1 | 0.605 | 0.876 | 0.495 | 0.386 | 0.931 | 0.738 | 0.892 | 0.633 | 0.449 | 0.613 | 0.653 | 0.95 | 0.507 |
| Cc1cc2ncnn2cc1Nc1ncc2c(n1)n(C1CCOCC1)c(=O)n2C [AZD7648] + CN(C)CCCOc1ccc(-c2ccc3ncc4c(c3c2)n(C2CCOCC2)c(=O)n4C)cn1 [AZD0156] (first compound max 10 µM, 7x7, partner max 1 µM) | 0.264 | 0.609 | 0.228 | 0.484 | 0.682 | 0.366 | 0.456 | 0.491 | 0.27 | 0.346 | 0.289 | 0.269 | 0.194 | 0.521 | 0.146 | 0.324 | 0.184 | 0.23 | 0.229 | 0.29 |
| CN(CCO)CC[C@H](CSc1ccccc1)Nc1ccc(S(=O)(=O)NC(=O)c2ccc(N3CCC([C@@H](O)c4ccccc4-c4ccc(Cl)cc4)CC3)cc2)cc1S(=O)(=O)C(F)(F)F [AZD4320] + CCN(CCO)CCCOc1ccc2c(Nc3cc(CC(=O)Nc4cccc(F)c4)[nH]n3)ncnc2c1 [AZD2811] (first compound max 1 µM, 7x7, partner max 1 µM) | 0.752 | 0.49 | 0.292 | 0.338 | 0.817 | 0.309 | 1 | 0.169 | 0.196 | 0.486 | 0.0639 | 0.924 | 0.204 | 0.473 | 0.464 | 0.202 | 0.454 | 0.793 | 0.946 | 0.481 |
| Cc1cc2ncnn2cc1Nc1ncc2c(n1)n(C1CCOCC1)c(=O)n2C [AZD7648] + O=C(c1cc(Cc2n[nH]c(=O)c3ccccc23)ccc1F)N1CCN(C(=O)C2CC2)CC1 [Olaparib] (first compound max 10 µM, 7x7, partner max 10 µM) | 0.232 | 0.576 | 0.122 | 0.526 | 0.536 | 0.4 | 0.51 | 0.473 | 0.149 | 0.143 | 0.195 | 0.801 | 0.263 | 0.417 | 0.135 | 0.163 | 0.153 | 0.242 | 0.159 | 0.117 |
| N#Cc1cnc(Nc2cc(NC[C@H]3CNCCO3)c(C(F)(F)F)cn2)cn1 [SRA737] + Nc1ccn([C@@H]2O[C@H](CO)[C@@H](O)C2(F)F)c(=O)n1 [Gemcitabine] (first compound max 10 µM, 7x7, partner max 0.3 µM) | 0.851 | 0.92 | 0.846 | 0.945 | 1 | 0.725 | 1 | 0.708 | 0.78 | 0.544 | 0.579 | 0.986 | 0.735 | 0.952 | 0.585 | 0.58 | 0.728 | 0.724 | 0.889 | 0.796 |
| N#Cc1cnc(Nc2cc(NC[C@H]3CNCCO3)c(C(F)(F)F)cn2)cn1 [SRA737] + CCc1c2c(nc3ccc(O)cc13)-c1cc3c(c(=O)n1C2)COC(=O)[C@]3(O)CC [SN-38] (first compound max 10 µM, 7x7, partner max 0.3 µM) | 0.9 | 0.85 | 0.701 | 0.929 | 0.976 | 0.766 | 1 | 0.724 | 0.905 | 0.647 | 0.549 | 0.975 | 0.835 | 0.929 | 0.918 | 0.663 | 0.746 | 0.802 | 0.955 | 0.638 |
| COc1cc2c(cc1OCCCCCOc1cc3c(cc1OC)C(=O)N1C=C(C)C[C@H]1C=N3)N=C[C@@H]1CC(C)=CN1C2=O [SG3199] + O=C(c1cc(Cc2n[nH]c(=O)c3ccccc23)ccc1F)N1CCN(C(=O)C2CC2)CC1 [Olaparib] (first compound max 0.001 µM, 7x7, partner max 10 µM) | 0.174 | 0.422 | 0.168 | 0.278 | 0.303 | 0.181 | 0.38 | 0.192 | 0.119 | 0.0933 | 0.121 | 0.703 | 0.274 | 0.0514 | 0.106 | 0.131 | 0.0793 | 0.21 | 0.144 | 0.178 |
